Results on 17 compounds are retold here after paper PMC10938303 (Bioorganic & medicinal chemistry letters, 2022).

The nature of one data set: In vitro clearance, rat. It counts as in vitro ADME.
Data set [1] is described as follows: In vitro clearance, human. The class given is in vitro ADME.
Another data set deals with T1, hM5 (Homo sapiens, UniProt P08912).
T1 sequence (P08912 1-532): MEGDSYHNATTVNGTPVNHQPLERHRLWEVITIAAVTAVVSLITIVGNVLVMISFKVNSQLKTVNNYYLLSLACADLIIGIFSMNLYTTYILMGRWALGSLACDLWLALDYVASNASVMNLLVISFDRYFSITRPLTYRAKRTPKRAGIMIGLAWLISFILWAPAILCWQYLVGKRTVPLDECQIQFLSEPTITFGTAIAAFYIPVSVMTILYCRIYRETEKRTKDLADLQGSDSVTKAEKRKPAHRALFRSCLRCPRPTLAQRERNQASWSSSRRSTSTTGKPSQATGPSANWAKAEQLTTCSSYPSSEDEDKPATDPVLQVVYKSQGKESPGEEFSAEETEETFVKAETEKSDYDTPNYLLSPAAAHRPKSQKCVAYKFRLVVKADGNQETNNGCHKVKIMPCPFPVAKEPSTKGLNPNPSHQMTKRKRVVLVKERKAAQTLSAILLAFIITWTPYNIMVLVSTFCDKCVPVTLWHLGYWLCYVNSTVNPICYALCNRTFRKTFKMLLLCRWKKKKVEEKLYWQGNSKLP
Nature of the data set: Calcium mobilization assay with hM5-CHO cells, EC80 acetylcholine. It counts as cell-based. To be noted: for hM5 IC50: hM5-CHO cells, EC80 acetylcholine, one experiment in triplicate. In general terms: Calcium assays in cells follow changes in intracellular calcium, usually with a dye or a luminescent sensor.

For `O=C(Nc1ccc2scnc2c1)C1CCN(S(=O)(=O)c2ccc3c(c2)CCO3)C1` (centres unmarked) [12a], the “Predicted CLhep (r)” value in “In vitro clearance, rat” is given as 55 mL/min/kg. Besides, in data set [1], the “Predicted CLhep (h)” value is on record as 16 mL/min/kg.

In the case of `O=C(Nc1ccc2scnc2c1)C1CN(S(=O)(=O)c2ccc3c(c2)CCO3)C1` [12b], the “Predicted CLhep (r)” value in “In vitro clearance, rat” is recorded as 57 mL/min/kg. The “Predicted CLhep (h)” value in data set [1] is 16 mL/min/kg.

Turning to `O=C(Nc1ccc2scnc2c1)[C@H]1CCN(S(=O)(=O)c2ccc3c(c2)CCO3)C1` [12c], the “Predicted CLhep (r)” value in “In vitro clearance, rat” is reported as 52 mL/min/kg. Further, the “Predicted CLhep (h)” value in data set [1] is on record as 16 mL/min/kg.

Consider `O=C(Nc1ccc2scnc2c1)[C@@H]1CCN(S(=O)(=O)c2ccc3c(c2)CCO3)C1` [12d], for which the “Predicted CLhep (r)” value in the data set “In vitro clearance, rat” is 59 mL/min/kg. In data set [1], the “Predicted CLhep (h)” value was 15 mL/min/kg. The “fold more potent than (S)-12a (12c) (hM5 IC50)” value at hM5 (versus 12c) is given as 21 fold.

Consider `C[C@@H]1CN(S(=O)(=O)c2ccc3c(c2)CCO3)C[C@@H]1C(=O)Nc1ccc2scnc2c1` [12e], for which the “Predicted CLhep (r)” value in the data set “In vitro clearance, rat” is recorded as 64 mL/min/kg. In addition, the “Predicted CLhep (h)” value in data set [1] was 19 mL/min/kg.

Consider `C[C@H]1CN(S(=O)(=O)c2ccc3c(c2)CCO3)C[C@@H]1C(=O)Nc1ccc2scnc2c1` [12f], for which the “Predicted CLhep (r)” value in the data set “In vitro clearance, rat” is reported as 29 mL/min/kg. Besides, the “Predicted CLhep (h)” value in data set [1] is listed as 4 mL/min/kg.

On to `O=C(Nc1ccc2scnc2c1)[C@H]1CN(S(=O)(=O)c2ccc3c(c2)CCO3)C[C@@H]1C(F)(F)F` [12g], for which, at hM5, the “hM5 IC50” value is “inactive”.

On to `O=C(Nc1ccc2scnc2c1)C12CC1CN(S(=O)(=O)c1ccc3c(c1)CCO3)C2` (centres unmarked) [12h], for which, in “In vitro clearance, rat”, the “Predicted CLhep (r)” value was 60 mL/min/kg. In data set [1], the “Predicted CLhep (h)” value was 18 mL/min/kg.

In the case of `Cc1nn(C)cc1S(=O)(=O)N1CC[C@@H](C(=O)Nc2ccc3scnc3c2)C1` [17a], at hM5, the “hM5 IC50” value was “inactive”.

For the compound `Cn1cc(S(=O)(=O)N2CC[C@@H](C(=O)Nc3ccc4scnc4c3)C2)c(C(F)(F)F)n1` [17b], the “hM5 IC50” value on hM5 was “inactive”.

For `O=C(Nc1ccc2scnc2c1)[C@@H]1CCN(S(=O)(=O)c2cccnc2)C1` [17c], the “hM5 IC50” value at hM5 is “inactive”.

In the case of `O=C(Nc1ccc2scnc2c1)[C@@H]1CCN(S(=O)(=O)c2ccc(Cl)nc2)C1` [17d], the “hM5 IC50” value on hM5 was “inactive”.

For the compound `[2H]C1([2H])Oc2ccc(S(=O)(=O)N3CC[C@@H](C(=O)Nc4ccc5scnc5c4)C3)cc2C1([2H])[2H]` [17f], the “Predicted CLhep (r)” value in the data set “In vitro clearance, rat” is on record as 49 mL/min/kg. Moreover, the “Predicted CLhep (h)” value in data set [1] is 15 mL/min/kg.

Regarding `O=C(Nc1ccc2scnc2c1)[C@@H]1CCN(S(=O)(=O)c2ccc3c(c2)OCO3)C1` [17g], the “Predicted CLhep (r)” value in the data set “In vitro clearance, rat” was 55 mL/min/kg. Also, in data set [1], the “Predicted CLhep (h)” value was 12 mL/min/kg.

Consider `O=C(Nc1ccc2scnc2c1)[C@@H]1CCN(S(=O)(=O)c2ccc3c(c2)CCC3)C1` [17h], for which, at hM5, the “hM5 IC50” value is “significantly less active”.

Take `O=C(Nc1ccc2scnc2c1)[C@@H]1CCN(S(=O)(=O)c2ccc3ncccc3c2)C1` [17i]: the “Predicted CLhep (r)” value in the data set “In vitro clearance, rat” was 51 mL/min/kg. Moreover, the “Predicted CLhep (h)” value in data set [1] is recorded as 14 mL/min/kg.

With `O=C(Nc1ccc2scnc2c1)[C@@H]1CCN(S(=O)(=O)c2ccc3ncsc3c2)C1` [17j], the “Predicted CLhep (r)” value in “In vitro clearance, rat” is recorded as 29 mL/min/kg. Moreover, the “Predicted CLhep (h)” value in data set [1] is 13 mL/min/kg.
